Laboratory results: article PMC7021728, “Structure of the agonist 12–HHT in its BLT2 receptor-bound state” (Scientific Reports, 2020)
Positions count from the first letter of the chain named. Like-named read-outs stand apart in the source and are kept apart here.

Tests used:
BLT2 P175^ECL2A = molecular target: T1, BLT2 P175^ECL2A (Homo sapiens, UniProt Q9NPC1, P175A); assay: Gi protein activation catalyzed by BLT2 mutant; format: biochemical
T1 construct: made in house
T1 sequence (Q9NPC1 1-358 P175A): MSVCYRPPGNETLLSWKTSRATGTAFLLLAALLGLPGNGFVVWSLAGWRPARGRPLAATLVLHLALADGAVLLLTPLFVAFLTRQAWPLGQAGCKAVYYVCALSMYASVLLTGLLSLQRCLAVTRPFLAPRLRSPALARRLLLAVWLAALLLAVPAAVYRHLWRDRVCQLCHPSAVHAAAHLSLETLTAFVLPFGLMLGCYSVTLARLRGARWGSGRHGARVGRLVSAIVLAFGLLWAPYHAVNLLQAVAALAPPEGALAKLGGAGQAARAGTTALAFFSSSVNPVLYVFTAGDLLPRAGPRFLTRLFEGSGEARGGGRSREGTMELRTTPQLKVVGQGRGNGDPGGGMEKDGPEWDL
Protocol: (§1) All mutations were introduced in the wild-type BLT2 receptor by PCR-mediated mutagenesis using the QuickChange multisite-directed mutagenesis kit (Stratagene) and the wild-type BLT2 construct as a template. Mutations were confirmed by nucleotide sequencing. […] Gαi2 and Gβ1γ2 were prepared as previously described. […] The data were normalized to the fluorescence maximum obtained in the presence of saturating concentrations in 12–HHT (10 μM).

BLT2 R160^4.64A = molecular target: T2, BLT2 R160^4.64A (Homo sapiens, UniProt Q9NPC1, R160A); assay: Gi protein activation catalyzed by BLT2 mutant; format: biochemical
T2 construct: made in house
T2 sequence (Q9NPC1 1-358 R160A): T1 sequence (Q9NPC1 1-358 P175A) with R160A, A175P
Protocol: as §1

BLT2 Q267^7.32A = molecular target: T3, BLT2 Q267^7.32A (Homo sapiens, UniProt Q9NPC1, Q267A); assay: Gi protein activation catalyzed by BLT2 mutant; format: biochemical
T3 construct: made in house
T3 sequence (Q9NPC1 1-358 Q267A): T1 sequence (Q9NPC1 1-358 P175A) with A175P, Q267A
Protocol: as §1

BLT2 [1] = tested on: BLT2; parameters: method as in PMID 18378794; details: cited from earlier work
BLT2 [2] = tested on: BLT2; parameters: method as in PMID 18378794; details: membrane fractions of CHO transfected by BLT2; cited from earlier work
BLT2 R270^7.35A = molecular target: T4, BLT2 R270^7.35A (Homo sapiens, UniProt Q9NPC1, R270A); assay: Gi protein activation catalyzed by BLT2 mutant; format: biochemical; details: construct R270^7.35A
T4 construct: made in house
T4 sequence (Q9NPC1 1-358 R270A): T1 sequence (Q9NPC1 1-358 P175A) with A175P, R270A
Protocol: (§2) All mutations were introduced in the wild-type BLT2 receptor by PCR-mediated mutagenesis using the QuickChange multisite-directed mutagenesis kit (Stratagene) and the wild-type BLT2 construct as a template. Mutations were confirmed by nucleotide sequencing.
(§3) Gαi2 and Gβ1γ2 were prepared as previously described. Briefly, agonist-dependent functional coupling of the purified receptor to Gαi2β1γ2 was assessed through the rate of GTPγS binding at increasing agonist concentrations determined by monitoring the relative increase in the intrinsic fluorescence ( λexcitation=300nm , λemission=345nm ) of Gαi2 (200 nM of purified G protein) in the presence of BLT2 (20 nM) in buffer containing 10 mM MOPS, pH 7.2, 130 mM NaCl, and 2 mM MgCl2 at 15 °C after the addition of 10 μM GTPγS. The data were normalized to the fluorescence maximum obtained in the presence of saturating concentrations in 12–HHT (10 μM).

BLT2 S174^ECL2A = molecular target: T5, BLT2 S174^ECL2A (Homo sapiens, UniProt Q9NPC1, S174A); assay: Gi protein activation catalyzed by BLT2 mutant; format: biochemical
T5 construct: made in house
T5 sequence (Q9NPC1 1-358 S174A): T1 sequence (Q9NPC1 1-358 P175A) with S174A, A175P
Protocol: as §2, §3

EC50 (BLT2 P175^ECL2A; construct P175^ECL2A): 38.9 nM
effect of the mutation on ligand binding (BLT2 R160^4.64A; R160^4.64A compared to wild-type, in words): no effect
EC50 (BLT2 R160^4.64A; construct R160^4.64A): 20.5 nM
effect of the mutation on ligand binding (BLT2 Q267^7.32A; Q267^7.32A compared to wild-type, in words): no significant change in ligand binding
EC50 (BLT2 Q267^7.32A; construct Q267^7.32A): 33.1 nM
EC50 (BLT2 R270^7.35A): 235 nM
EC50 (BLT2 S174^ECL2A; S174^ECL2A, read-out: EC50): 295 nM
EC50 (BLT2 S174^ECL2A; construct S174^ECL2A, given as LogEC50 (negative sign), read-out: LogEC50 (converted)): 289 nM
EC50 (BLT2 S174^ECL2A; construct S174^ECL2A, read-out: EC50): 295 nM
SMILES: CCCCC[C@H](O)/C=C/C=C/C/C=C\CCCC(=O)O [12–HHT, 12S–hydroxyheptadeca-5Z,8E,10E-trienoic acid]
effect of the mutation on ligand binding (BLT2 P175^ECL2A; P175^ECL2 to alanine compared to wild-type, in words): do not display a significant impact on ligand binding
affinity for BLT2 compared to LTB4 (BLT2 [1]; in cellulo measurements): about one order of magnitude
half maximal inhibitory concentration (IC50) compared to LTB4 (BLT2 [1]; membrane fractions of CHO transfected by BLT2): about one order of magnitude lower than LTB4
half maximal effective concentration (EC50) compared to LTB4 (BLT2 [2]): about one order of magnitude lower than LTB4
